pIC50: −log10 of the molar value.
How the values were obtained:
SF767 cells = experiment: Alamar Blue cell viability assay, SF767; assay type: cell-based; conditions: Homo sapiens, 48 hours
Experimental: (§1) The Alamar Blue assay was used to assess viability as described previously (See Reference 29, incorporated by reference in its entirety). Briefly, 4000 cells of each population were seeded in quadruplicate wells of 96-well plastic plates in 200 μl of culture medium supplemented with 10% fetal bovine serum. Cells were treated with various conditions and the assay was developed 48 hours later. Alamar Blue was then added to the cells in a volume of 20 μl (10% of total volume) per well and the plates were incubated for 6 hours at 37° C. The plates were read on a fluorescence plate reader (excitation, 560 nm; emission, 600 nm). Averages of the fluorescence values were calculated and normalized to controls without Temozolomide.

T98G cells = experiment: Alamar Blue cell viability assay, T98G; assay type: cell-based; conditions: Homo sapiens, 48 hours
Experimental: as §1

Compound: Cn1nnc2c(C(N)=O)ncn2c1=O [Temozolomide]
- pIC50 (SF767 cells): 3.90
- pIC50 (T98G cells): 3.60

Source: patent publication US9587239B2, “Methods of identifying and treating glioblastoma” (THE TRANSLATIONAL GENOMICS RESEARCH INSTITUTE, priority 2008, dated 2017)
